Assays:
Assay in all cases: relative viability (nuclei count vs DMSO), 5 days (fraction); higher = more cells survive
MLN4924 + Navitoclax = compound: NS(=O)(=O)OC[C@@H]1C[C@@H](n2ccc3c(N[C@H]4CCc5ccccc54)ncnc32)C[C@@H]1O [MLN4924] + CC1(C)CCC(c2ccc(Cl)cc2)=C(CN2CCN(c3ccc(C(=O)NS(=O)(=O)c4ccc(N[C@H](CCN5CCOCC5)CSc5ccccc5)c(S(=O)(=O)C(F)(F)F)c4)cc3)CC2)C1 [Navitoclax] (partner 0.5 µM)
Outline: (§1)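 Each reported value is a median over duplicate plates. It expresses relative viability: treated-well nuclei count divided by vehicle-well nuclei count. Lung cancer cell lines in 1536-well plates were dosed by pin tool a day after seeding, alone with one drug or with a fixed anchor-drug dose plus five library-drug doses (not always all listed) in √10 steps, and nuclei were counted after 5 days.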

MLN4924 + AZD7762 = compound: NS(=O)(=O)OC[C@@H]1C[C@@H](n2ccc3c(N[C@H]4CCc5ccccc54)ncnc32)C[C@@H]1O [MLN4924] + NC(=O)Nc1cc(-c2cccc(F)c2)sc1C(=O)N[C@H]1CCCNC1 [AZD7762] (partner 0.2 µM)
Outline: as §1

[1] = compound: C1CC(C1)(C(=O)O)C(=O)O.[NH2-].[NH2-].[Pt+2] [Carboplatin] + CC(=O)c1c(C)c2cnc(Nc3ccc(N4CCNCC4)cn3)nc2n(C2CCCC2)c1=O [Palbociclib] (partner 0.5 µM)
Outline: as §1

GSK126 + Tozasertib = compound: CC[C@H](C)N1C=C(C2=C(C=C(C=C21)C3=CN=C(C=C3)N4CCNCC4)C(=O)NCC5=C(C=C(NC5=O)C)C)C [GSK126] + Cc1cc(Nc2cc(N3CCN(C)CC3)nc(Sc3ccc(NC(=O)C4CC4)cc3)n2)n[nH]1 [Tozasertib] (partner 0.1 µM)
Outline: as §1

Cell Line | relative viability (MLN4924 + Navitoclax; first compound 0.04 µM) | relative viability (MLN4924 + Navitoclax; first compound 0.1265 µM) | relative viability (MLN4924 + Navitoclax; first compound 0.4 µM) | relative viability (MLN4924 + Navitoclax; first compound 1.265 µM) | relative viability (MLN4924 + Navitoclax; first compound 4 µM) | relative viability (MLN4924 + AZD7762; first compound 0.04 µM) | relative viability (MLN4924 + AZD7762; first compound 0.1265 µM) | relative viability (MLN4924 + AZD7762; first compound 0.4 µM) | relative viability (MLN4924 + AZD7762; first compound 1.265 µM) | relative viability (MLN4924 + AZD7762; first compound 4 µM) | relative viability ([1]; first compound 0.08 µM) | relative viability ([1]; first compound 0.253 µM) | relative viability ([1]; first compound 0.8 µM) | relative viability ([1]; first compound 2.53 µM) | relative viability ([1]; first compound 8 µM) | relative viability (GSK126 + Tozasertib; first compound 0.08 µM) | relative viability (GSK126 + Tozasertib; first compound 0.253 µM) | relative viability (GSK126 + Tozasertib; first compound 0.8 µM) | relative viability (GSK126 + Tozasertib; first compound 2.53 µM) | relative viability (GSK126 + Tozasertib; first compound 8 µM)
HCC-366 | 1.06 | 1.09 | 0.353 | 0.241 | 0.0154 | 0.312 | 0.56 | 0.526 | 0.297 | 0.0472 | 0.484 | 0.401 | 0.339 | 0.233 | 0.152 | 0.193 | 0.117 | 0.123 | 0.0783 | 0.0929
IA-LM | 0.238 | 0.159 | 0.0746 | 0.0607 | 0.0616 | – | – | – | – | – | – | – | – | – | – | – | – | – | – | –
LCLC-103H | – | – | – | – | – | 0.831 | 0.833 | 0.7 | 0.239 | 0.247 | 0.538 | 0.469 | 0.543 | 0.431 | 0.444 | 0.699 | 0.473 | 0.435 | 0.512 | 0.446
NCI-H358 | – | – | – | – | – | 0.518 | 0.472 | 0.369 | 0.144 | 0.215 | 0.141 | 0.148 | 0.144 | 0.149 | 0.183 | 0.105 | 0.116 | 0.133 | 0.12 | 0.122
NCI-H520 | 0.629 | 0.583 | 0.298 | 0.227 | 0.223 | – | – | – | – | – | 0.26 | 0.2 | 0.201 | 0.223 | 0.228 | 0.594 | 0.426 | 0.48 | 0.443 | 0.352
NCI-H522 | – | – | – | – | – | 0.919 | 0.69 | 0.588 | 0.353 | 0.383 | 0.897 | 1.35 | 1 | 0.965 | 0.825 | 0.535 | 0.507 | 0.503 | 0.527 | 0.605
NCI-H596 | 0.969 | 0.99 | 0.62 | 0.68 | 0.28 | 1.04 | 1.22 | 1.06 | 1.15 | 1.19 | – | – | – | – | – | 0.933 | 1.03 | 0.894 | 0.89 | 0.933
NCI-H650 | – | – | – | – | – | 1.1 | 0.578 | 0.371 | 0.231 | 0.148 | 0.318 | 0.337 | 0.332 | 0.276 | 0.232 | 0.783 | 0.744 | 0.702 | 0.691 | 0.717
NCI-H661 | – | – | – | – | – | – | – | – | – | – | 0.385 | 0.428 | 0.399 | 0.416 | 0.374 | 0.355 | 0.336 | 0.344 | 0.343 | 0.332
NCI-H1299 | 1.1 | 0.886 | 0.472 | 0.249 | 0.247 | – | – | – | – | – | – | – | – | – | – | – | – | – | – | –
NCI-H1623 | – | – | – | – | – | – | – | – | – | – | – | – | – | – | – | 0.453 | 0.487 | 0.419 | 0.416 | 0.353
NCI-H1648 | – | – | – | – | – | 0.777 | 0.727 | 0.526 | 0.33 | 0.223 | 0.239 | 0.291 | 0.264 | 0.302 | 0.3 | 0.386 | – | 0.478 | 0.518 | 0.321
NCI-H1650 | 1.02 | 0.739 | 0.438 | 0.156 | 0.176 | – | – | – | – | – | 0.321 | 0.341 | 0.359 | 0.349 | 0.251 | 0.42 | 0.455 | 0.394 | 0.356 | 0.3
NCI-H1703 | 0.133 | 0.14 | 0.188 | 0.133 | 0.124 | 0.135 | 0.126 | 0.111 | 0.11 | 0.123 | – | – | – | – | – | – | – | – | – | –
NCI-H1792 | 0.594 | 0.46 | 0.567 | 0.338 | 0.109 | 0.914 | 0.866 | 1.21 | 0.413 | 0.242 | 0.674 | 0.607 | 0.639 | 0.616 | 0.569 | – | – | – | – | –
NCI-H2009 | 0.809 | 0.365 | 0.293 | 0.0903 | 0.0793 | – | – | – | – | – | 0.203 | 0.202 | 0.182 | 0.207 | 0.183 | 0.798 | 0.705 | 0.639 | 0.615 | 0.464
NCI-H2023 | 1 | 0.758 | 0.362 | 0.109 | 0.0667 | – | – | – | – | – | 0.433 | 0.384 | 0.318 | 0.326 | 0.121 | 0.387 | 0.342 | 0.339 | 0.266 | 0.184
NCI-H2228 | – | 1.03 | 0.221 | 0.135 | 0.155 | – | – | – | – | – | 0.898 | 0.841 | 0.654 | 0.737 | 0.552 | 0.254 | 0.225 | 0.273 | 0.172 | 0.15
NCI-H2342 | – | – | – | – | – | 0.412 | 0.568 | 0.551 | 0.523 | 0.452 | 0.514 | 0.483 | 0.482 | 0.531 | 0.526 | 0.538 | 0.471 | 0.613 | 0.507 | 0.597
SK-LU-1 | 0.737 | 0.618 | 0.175 | 0.127 | 0.167 | – | – | – | – | – | 0.424 | 0.386 | 0.363 | 0.415 | 0.355 | 0.293 | 0.357 | 0.366 | 0.321 | 0.331
SK-MES-1 | 1.04 | 1.04 | 0.62 | 0.199 | 0.166 | – | – | – | – | – | 0.354 | 0.298 | 0.316 | 0.329 | 0.315 | 0.852 | 0.988 | 0.937 | 0.813 | 0.81
SW 900 | – | – | – | – | – | – | 0.806 | 0.467 | 0.331 | 0.259 | 0.548 | 0.622 | 0.572 | 0.393 | 0.505 | 0.577 | 0.534 | 0.635 | 0.632 | 0.51
SW 1573 | 0.887 | 1.12 | 0.439 | 0.0613 | 0.0532 | – | – | – | – | – | 0.484 | 0.438 | 0.43 | 0.369 | 0.273 | 0.222 | 0.211 | 0.159 | 0.176 | 0.198
